Tests used:
[1] = test system: THP-1 cell-derived macrophage; experiment: Cholesterol ester accumulation-inhibitory activity (THP-1 cell-derived macrophage foam cell formation); assay type: cell-based; details: THP-1 macrophage, acetyl LDL, 3 days
Procedure: THP-1 cells (DAINIPPON PHARMACEUTICAL CO., LTD.) were subcultured in RPMI-1640 medium containing 10% fetal calf serum (FBS), and cells at 6-13th passage after purchase were used. The cells were suspended in FBS-containing RPMI-1640 medium to give a suspension having a concentration of 4×10^5 cells/mL. The cell suspension was seeded on 12-well microplate by 1 mL, and treated with phorbol 12-myristate 13-acetate (PMA, 200 nM) as a differentiation inducer into macrophage. Then, acetyl LDL (400 μg/mL) separately prepared from LDL derived from plasma of a rabbit with genetic hyperlipidemia (KHC rabbit, Japan Laboratory Animals Inc.) was added. A test compound further dissolved in dimethyl sulfoxide (DMSO) and diluted with FBS-containing RPMI-1640 medium and a control solvent were applied. After cultivation in a carbon dioxide incubator for 3 days, the cells were washed with phosphate-buffered saline (pH 7.0), and the lipid was extracted with hexane-isopropanol (3:2). In addition, the cells were lysed with 1N-NaOH, and the protein content was measured. Free cholesterol and cholesterol ester in the lipid extraction sample were measured according to the method of Kunitomo et al. [Japan. J. Pharmacol., 34, 153-158 (1984)]. Cholesterol esters in the control cells and the cells treated with the test compound were compared, and the cholesterol ester accumulation inhibitory rate of the test compound was calculated.

liver ACAT = experiment: ACAT inhibitory activity (rabbit liver microsome, cholesteryl oleate production); assay type: biochemical, Japanese white rabbits; details: 37° C. for 20 min
Procedure: Male Japanese white rabbits (body weight 2-2.5 kg) were bred on 100 g of a high cholesterol feed (feed added with cholesterol 1%, CLEA Japan, Inc.) daily for 4 weeks and sacrificed by exsanguination under anesthesia. The liver was removed, homogenated and centrifuged at 10,000 rpm and 4° C. for 15 min. The obtained supernatant was further centrifuged at 41,000 rpm and 4° C. for 60 min to give a microsome fraction. To a 0.15 M phosphate buffer were added the microsome suspension as an enzyme specimen, dimethyl sulfoxide (DMSO) or a solution (3 μL) of a test compound in DMSO and [1-14C]-oleoyl-CoA to be a reaction substrate to the total amount of 300 μL. After incubation at 37° C. for 20 min, a mixed solution of chloroform-methanol was added to quench the reaction. Water was added thereto and mixed, and the chloroform layer was separated. The solvent was evaporated to dryness and the residue was redissolved in n-hexane. The resulting solution was subjected to thin layer chromatography using a silica gel plate. The spot of cholesteryl oleate on the silica gel plate was scraped and quantified on a liquid scintillation counter. The ACAT inhibitory activity of the test compound is shown in cholesteryl oleate production inhibitory rate (%) [level of inhibition of cholesteryl oleate production as compared to the control].

| Structure (SMILES) | cholesteryl ester accumulation inhibitory rate (%) (concentration: 10^−6 M) [1] | liver ACAT inhibition rate (%) (concentration: 10^−6 M) (liver ACAT) |
| --- | --- | --- |
| CCCCCC(=O)N1Cc2cc(OCCN3CCCC3)ccc2C[C@H]1C(=O)Nc1cc(C)c(O)c(C)c1C.Cl [Example 118, 2-hexanoyl-N-(4-hydroxy-2,3,5-trimethylphenyl)-7-[2-(pyrrolidin-1-yl)ethoxy]-1,2,3,4-tetrahydroisoquinoline-(3S)-carboxamide hydrochloride] | 68.6% |  |
| CCC(C)(C)C(=O)N1Cc2cc(N(C)C)ccc2C[C@@H]1C(=O)Nc1cc(C)c(O)c(C)c1C.Cl [Example 75, 7-dimethylamino-2-(2,2-dimethylbutyryl)-N-(4-hydroxy-2,3,5-trimethylphenyl)-1,2,3,4-tetrahydroisoquinoline-(3R)-carboxamide hydrochloride] | 93.4% | 88.8% |
| CCCCCC(=O)N1Cc2cc(OCCCO)ccc2C[C@H]1C(=O)Nc1cc(C)c(O)c(C)c1C [Example 119, 2-hexanoyl-7-(3-hydroxypropoxy)-N-(4-hydroxy-2,3,5-trimethylphenyl)-1,2,3,4-tetrahydroisoquinoline-(3S)-carboxamide] | 84.5% |  |
| CCCCCC(=O)N1Cc2cc(N)ccc2C[C@H]1C(=O)Nc1cc(C)c(O)c(C)c1C.Cl [Example 80, 7-amino-2-hexanoyl-N-(4-hydroxy-2,3,5-trimethylphenyl)-1,2,3,4-tetrahydroisoquinoline-(3S)-carboxamide hydrochloride] | 94.5% | 93.4% |
| CCCCCC(=O)N1Cc2cc(N3CCNCC3)ccc2C[C@H]1C(=O)Nc1cc(C)c(O)c(C)c1C [Example 121, 2-hexanoyl-N-(4-hydroxy-2,3,5-trimethylphenyl)-7-(piperazin-1-yl)-1,2,3,4-tetrahydroisoquinoline-(3S)-carboxamide] | 86.8% |  |
| CCCCCCCC(=O)N1Cc2ccccc2C[C@H]1C(=O)Nc1cc(C)c(O)c(C)c1C [Example 49, N-(4-hydroxy-2,3,5-trimethylphenyl)-2-octanoyl-1,2,3,4-tetrahydroisoquinoline-(3S)-carboxamide] |  | 96.8% |
| CCCCCC(=O)N1Cc2cc(O)ccc2C[C@H]1C(=O)Nc1cc(C)c(O)c(C)c1C [Example 116, 2-hexanoyl-7-hydroxy-N-(4-hydroxy-2,3,5-trimethylphenyl)-1,2,3,4-tetrahydroisoquinoline-(3S)-carboxamide] |  | 97.2% |
| CCCCCC(=O)N1Cc2cc(N(C)C)ccc2C[C@@H]1C(=O)Nc1cc(C)c(O)c(C)c1C.Cl [Example 74, 7-dimethylamino-2-hexanoyl-N-(4-hydroxy-2,3,5-trimethylphenyl)-1,2,3,4-tetrahydroisoquinoline-(3R)-carboxamide hydrochloride] | 74.7% |  |
| CCCCCC(=O)N1Cc2cc(O)ccc2C[C@H]1C(=O)Nc1c(C(C)C)cc(N)cc1C(C)C.Cl [Example 114, N-(4-amino-2,6-diisopropylphenyl)-2-hexanoyl-7-hydroxy-1,2,3,4-tetrahydroisoquinoline-(3S)-carboxamide hydrochloride] |  | 87.5% |
| CCC(C)(C)C(=O)N1Cc2cc(N)ccc2C[C@H]1C(=O)Nc1cc(C)c(O)c(C)c1C.Cl [Example 104, 7-amino-2-(2,2-dimethylbutyryl)-N-(4-hydroxy-2,3,5-trimethylphenyl)-1,2,3,4-tetrahydroisoquinoline-(3S)-carboxamide hydrochloride] | 77.3% | 80.6% |
| CCCCCCCC(=O)N1Cc2cc(N(C)C)ccc2C[C@H]1C(=O)Nc1c(C)cc(C)cc1C [Example 76, 7-dimethylamino-2-octanoyl-N-(2,4,6-trimethylphenyl)-1,2,3,4-tetrahydroisoquinoline-(3S)-carboxamide] |  | 76.7% |
| CCC(C)(C)C(=O)N1Cc2ccccc2C[C@H]1C(=O)Nc1c(C)cc(C)c(NS(C)(=O)=O)c1C [Example 19, 2-(2,2-dimethylbutyryl)-N-(3-methanesulfonylamino-2,4,6-trimethylphenyl)-1,2,3,4-tetrahydroisoquinoline-(3S)-carboxamide] | 66.4% |  |
| Cc1cc(NC(=O)[C@@H]2Cc3ccc(N4CCCC4)cc3CN2C(=O)C(C)C)c(C)c(C)c1O.Cl [Example 93, N-(4-hydroxy-2,3,5-trimethylphenyl)-2-isobutyryl-7-(pyrrolidin-1-yl)-1,2,3,4-tetrahydroisoquinoline-(3S)-carboxamide hydrochloride] | 83.4% |  |
| CCCCCCCC(=O)N1Cc2ccccc2C[C@H]1C(=O)Nc1c(C(C)C)cccc1C(C)C [Example 3, N-(2,6-diisopropylphenyl)-2-octanoyl-1,2,3,4-tetrahydroisoquinoline-(3S)-carboxamide] |  | 93.3% |
| CCCCCCCC(=O)N1Cc2ccccc2C[C@@H]1C(=O)Nc1c(C)cc(C)cc1C [Example 26, 2-octanoyl-N-(2,4,6-trimethylphenyl)-1,2,3,4-tetrahydroisoquinoline-(3R)-carboxamide] |  | 83.8% |
| Cc1cc(NC(=O)[C@@H]2Cc3ccc(NS(C)(=O)=O)cc3CN2C(=O)CC(C)(C)C)c(C)c(C)c1O [Example 106, 2-(3,3-dimethylbutyryl)-N-(4-hydroxy-2,3,5-trimethylphenyl)-7-methanesulfonylamino-1,2,3,4-tetrahydroisoquinoline-(3S)-carboxamide] | 76.9% | 89.6% |
| CCCCCC(=O)N1Cc2cc(N(C)C)ccc2C[C@H]1C(=O)Nc1cc(C)c(O)c(C)c1C.Cl [Example 83, 7-dimethylamino-2-hexanoyl-N-(4-hydroxy-2,3,5-trimethylphenyl)-1,2,3,4-tetrahydroisoquinoline-(3S)-carboxamide hydrochloride] | 100.2% | 97.0% |
| CCCCCC(=O)N1Cc2cc(NS(C)(=O)=O)ccc2C[C@H]1C(=O)Nc1cc(C)c(O)c(C)c1C [Example 95, 2-hexanoyl-N-(4-hydroxy-2,3,5-trimethylphenyl)-7-methanesulfonylamino-1,2,3,4-tetrahydroisoquinoline-(3S)-carboxamide] | 80.4% |  |
| CCCC(=O)N1Cc2cc(N(C)C)ccc2C[C@H]1C(=O)Nc1cc(C)c(O)c(C)c1C.Cl [Example 71, 2-butyryl-7-dimethylamino-N-(4-hydroxy-2,3,5-trimethylphenyl)-1,2,3,4-tetrahydroisoquinoline-(3S)-carboxamide hydrochloride] | 79.2% |  |
| CCC(=O)N1Cc2cc(N3CCCC3)ccc2C[C@H]1C(=O)Nc1cc(C)c(O)c(C)c1C.Cl [Example 91, N-(4-hydroxy-2,3,5-trimethylphenyl)-2-propionyl-7-(pyrrolidin-1-yl)-1,2,3,4-tetrahydroisoquinoline-(3S)-carboxamide hydrochloride] | 71.1% |  |
| CCCCCCCC(=O)N1Cc2ccccc2C[C@H]1C(=O)Nc1c(C)cc(C)cc1C [Example 9, 2-octanoyl-N-(2,4,6-trimethylphenyl)-1,2,3,4-tetrahydroisoquinoline-(3S)-carboxamide] |  | 88.6% |

— patent US20100022582A1, “Tetrahydroisoquinoline Compound and Medicinal Use Thereof” (priority 2005, published 2010)
